PubChem BioAssay AID2060503 (Molecular Pharmacology Branch, DTP, NCI, 2025)

system: 817829-284-R-J1-PDC complex spheroids, viability; test: Anticancer human tumor 817829-284-R-J1-PDC patient-derived colon adenocarcinoma cell line growth inhibition [GQUAD]; details: second compound 3.16 µM; first compound 0.1 µM; stronger effect = lower value
Excerpt: DNA G-quadruplex Stabilizer Agents in Combinations in Complex Spheroids
A high-throughput screen of multi-cell type tumor spheroids was designed to identify active combinations of DNA G-quadruplex stabilizer agents and targeted small molecules. Complex spheroids include a stromal component modeled by human endothelial cells (HUVEC) and fibroblasts modeled by human mesenchymal stem cells (MSCs). The concentration ranges selected for each drug and investigational agent were based upon clinically achievable concentrations if the clinical Cmax of the agent was known.
Compounds. The drugs and investigational agents: pidnarulex (CX-5461; NSC782164), APTO-253 (NSC789042), BRACO-19 (NSC847499), peposertib (NSC802822), ceralasertib (NSC780249), elimusertib (NSC800525), camonsertib (NSC841442), AZD-1390 (NSC803789), olaparib (NSC753686), talazoparib (NSC767125), ART-558 (NSC835418), sotorasib (NSC818433), MRTX-1133 (NSC836407), SN-38 (NSC673596), topotecan (NSC609699), etoposide (NSC141540), doxorubicin (NSC123127), gemcitabine (NSC613327), 5-fluorouracil (NSC19893), paclitaxel (NSC125973), vemurafenib (NSC761431), panobinostat (NSC761190), R-306465 (JNJ-16241199; NSC773264), adavosertib (NSC754352), TP-3654 (NSC805149), carboplatin (NSC241240), KSQ-4279 (NSC840948), and staurosporine (NSC755774) were obtained from the National Cancer Institute (NCI) Developmental Therapeutics Program Chemical Repository (34). The FDA-approved anticancer drug set is available from the NCI Developmental Therapeutics Program. […] The stock solutions were prepared in dimethyl sulfoxide (DMSO, Sigma-Aldrich, St. Louis, MO, cat. D2650) at 800-fold the tested concentration and stored at -70 degrees C prior to their use. All drugs and investigational agents were tested over a range starting from a high concentration at or near the clinical Cmax and decreasing in half-log increments. If the clinical Cmax for an agent had not been determined, the highest concentration tested was 10 microM.
2.3 Cell Culture. All cells were maintained in an incubator at 37 degrees C and 5% CO2 with 95% humidity. The PDC lines were cultured according to standard operating procedures established by the NCI PDMR. All PDCs were thawed and cultured in Matrigel-coated flasks prepared with a working solution of 1X Ham's F-12 nutrient mix, without supplementation (Invitrogen, cat. 11765054), 100 U/mL penicillin-streptomycin (Invitrogen, cat. 15140122), and 2.5% Matrigel (Corning Inc., cat. 354248) for the first three passages. The 857933-349-R-J2-PDC line was cultured in 6C/Colon 1B media, which includes advanced DMEM/F-12 (Thermo Fisher Scientific, cat. 12634028), 10 mM HEPES (Thermo Fisher Scientific, cat. 15630080), 1X GlutaMAX supplement (Thermo Fisher Scientific, cat. 35050061), 0.1 mg/mL primocin (InvivoGen, cat. ant-pm-2), 10% defined fetal bovine serum, heat inactivated (HyClone Laboratories Inc., cat. SH30070.03HI), 50% L-WRN conditioned media (ATCC, cat. CRL-3276), 1.25 mM N-Acetyl-L-cysteine (Sigma-Aldrich, cat. A9165), 10 mM nicotinamide (Sigma-Aldrich, cat. N0636), 1X B-27 supplement (Thermo Fisher Scientific, cat. 17504044), 1X N-2 supplement (Thermo Fisher Scientific, cat. 17502048), 10 microM Y-27632 dihydrochloride (Tocris Bioscience, cat. 1254), and 50 ng/mL human EGF recombinant protein (Thermo Fisher Scientific, cat. PHG0311). The 485176-168-R4-J1-PDC line was cultured in Panc media, which includes all 6C/Colon 1B media components plus 100 ng/mL human FGF-10 (Thermo Fisher Scientific, cat. 100-26), 500 nM SB-431542 (Selleckchem, cat. S1067), and gastrin (Tocris, cat. 3006).
[…]
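Note: spheroids exposed to agents for 7 days before readout; percent viability relative to DMSO vehicle control taken as 100%.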

Q: Which viability, T/C does the source give for `CC1COCCN1c1cc(C2(S(C)(=N)=O)CC2)nc(-c2ccnc3[nH]ccc23)n1` (stereo unspecified) + Cc1[nH]c2ccc(F)cc2c1-c1nc2c3cccnc3c3ncccc3c2[nH]1 here?
A: The viability, T/C was 92%.

Q: Which viability, T/C does the source give for `COc1ccc([C@@H](O)c2cc(-c3ncnc4cc(N5CCOCC5)ccc34)c(F)cc2Cl)nn1` + Cc1[nH]c2ccc(F)cc2c1-c1nc2c3cccnc3c3ncccc3c2[nH]1 here?
A: Its viability, T/C is 79%.

same assay, conditions: second compound 3.16 µM; first compound 0.316 µM; stronger effect = lower value

Q: `CC(C)(O)C1CCC(Nc2ccc3ncc(-c4cccc(C(F)(F)F)c4)n3n2)CC1` (stereo unspecified) + CN(C)c1ccc(Nc2c3ccc(NC(=O)CCN4CCCC4)cc3nc3cc(NC(=O)CCN4CCCC4)ccc23)cc1 was tested. Which viability, T/C did it give?
A: The viability, T/C was 87.9%.

Q: Which viability, T/C does the source give for `CC1COCCN1c1cc(-c2ccnn2C)c2ccnc(-c3ccn[nH]3)c2n1` (stereo unspecified) + Cc1[nH]c2ccc(F)cc2c1-c1nc2c3cccnc3c3ncccc3c2[nH]1 here?
A: Its viability, T/C is 5.3%.

Q: How did the viability, T/C turn out when `CC1COCCN1c1cc(C2(S(C)(=N)=O)CC2)nc(-c2ccnc3[nH]ccc23)n1` (stereo unspecified) + Cc1[nH]c2ccc(F)cc2c1-c1nc2c3cccnc3c3ncccc3c2[nH]1 was run?
A: Its viability, T/C is 77.4%.

Q: For `COc1ccc([C@@H](O)c2cc(-c3ncnc4cc(N5CCOCC5)ccc34)c(F)cc2Cl)nn1` + Cc1[nH]c2ccc(F)cc2c1-c1nc2c3cccnc3c3ncccc3c2[nH]1, which viability, T/C is on record?
A: The viability, T/C was 103%.

same assay, conditions: second compound 3.16 µM; first compound 1 µM; stronger effect = lower value

Q: With `CC(C)(O)C1CCC(Nc2ccc3ncc(-c4cccc(C(F)(F)F)c4)n3n2)CC1` (stereo unspecified) + CN(C)c1ccc(Nc2c3ccc(NC(=O)CCN4CCCC4)cc3nc3cc(NC(=O)CCN4CCCC4)ccc23)cc1 as the molecule, how does the viability, T/C read?
A: The viability, T/C was 83.3%.

Q: For `CC1COCCN1c1cc(-c2ccnn2C)c2ccnc(-c3ccn[nH]3)c2n1` (stereo unspecified) + Cc1[nH]c2ccc(F)cc2c1-c1nc2c3cccnc3c3ncccc3c2[nH]1, which viability, T/C is on record?
A: The viability, T/C was 3.85%.

Q: How did the viability, T/C turn out when `CC1COCCN1c1cc(C2(S(C)(=N)=O)CC2)nc(-c2ccnc3[nH]ccc23)n1` (stereo unspecified) + Cc1[nH]c2ccc(F)cc2c1-c1nc2c3cccnc3c3ncccc3c2[nH]1 was run?
A: The viability, T/C was 10.7%.

Q: For `COc1ccc([C@@H](O)c2cc(-c3ncnc4cc(N5CCOCC5)ccc34)c(F)cc2Cl)nn1` + Cc1[nH]c2ccc(F)cc2c1-c1nc2c3cccnc3c3ncccc3c2[nH]1, which viability, T/C is on record?
A: The viability, T/C was 65.5%.

same assay, conditions: second compound 3.16 µM; first compound 3.16 µM; stronger effect = lower value

Q: For `CC(C)(O)C1CCC(Nc2ccc3ncc(-c4cccc(C(F)(F)F)c4)n3n2)CC1` (stereo unspecified) + CN(C)c1ccc(Nc2c3ccc(NC(=O)CCN4CCCC4)cc3nc3cc(NC(=O)CCN4CCCC4)ccc23)cc1, which viability, T/C is on record?
A: The viability, T/C was 31.6%.

Q: How did the viability, T/C turn out when `CC1COCCN1c1cc(-c2ccnn2C)c2ccnc(-c3ccn[nH]3)c2n1` (stereo unspecified) + Cc1[nH]c2ccc(F)cc2c1-c1nc2c3cccnc3c3ncccc3c2[nH]1 was run?
A: Its viability, T/C is 3.53%.

Q: `CC1COCCN1c1cc(C2(S(C)(=N)=O)CC2)nc(-c2ccnc3[nH]ccc23)n1` (stereo unspecified) + Cc1[nH]c2ccc(F)cc2c1-c1nc2c3cccnc3c3ncccc3c2[nH]1 was tested. Which viability, T/C did it give?
A: The viability, T/C was 6.38%.

Q: For `COc1ccc([C@@H](O)c2cc(-c3ncnc4cc(N5CCOCC5)ccc34)c(F)cc2Cl)nn1` + Cc1[nH]c2ccc(F)cc2c1-c1nc2c3cccnc3c3ncccc3c2[nH]1, which viability, T/C is on record?
A: The viability, T/C was 45.1%.

same assay, conditions: second compound 3.16 µM; first compound 10 µM; stronger effect = lower value

Q: How did the viability, T/C turn out when `CC(C)(O)C1CCC(Nc2ccc3ncc(-c4cccc(C(F)(F)F)c4)n3n2)CC1` (stereo unspecified) + CN(C)c1ccc(Nc2c3ccc(NC(=O)CCN4CCCC4)cc3nc3cc(NC(=O)CCN4CCCC4)ccc23)cc1 was run?
A: The viability, T/C was 23.2%.

Q: With `CC1COCCN1c1cc(-c2ccnn2C)c2ccnc(-c3ccn[nH]3)c2n1` (stereo unspecified) + Cc1[nH]c2ccc(F)cc2c1-c1nc2c3cccnc3c3ncccc3c2[nH]1 as the molecule, how does the viability, T/C read?
A: The viability, T/C was 3.13%.

Q: With `CC1COCCN1c1cc(C2(S(C)(=N)=O)CC2)nc(-c2ccnc3[nH]ccc23)n1` (stereo unspecified) + Cc1[nH]c2ccc(F)cc2c1-c1nc2c3cccnc3c3ncccc3c2[nH]1 as the molecule, how does the viability, T/C read?
A: Its viability, T/C is 4.15%.

Q: How did the viability, T/C turn out when `COc1ccc([C@@H](O)c2cc(-c3ncnc4cc(N5CCOCC5)ccc34)c(F)cc2Cl)nn1` + Cc1[nH]c2ccc(F)cc2c1-c1nc2c3cccnc3c3ncccc3c2[nH]1 was run?
A: Its viability, T/C is 26%.

same assay, conditions: second compound 10 µM; first compound 0.0316 µM; stronger effect = lower value

Q: Which viability, T/C does the source give for `CC(C)(O)C1CCC(Nc2ccc3ncc(-c4cccc(C(F)(F)F)c4)n3n2)CC1` (stereo unspecified) + CN(C)c1ccc(Nc2c3ccc(NC(=O)CCN4CCCC4)cc3nc3cc(NC(=O)CCN4CCCC4)ccc23)cc1 here?
A: The viability, T/C was 96%.

Q: For `CC1COCCN1c1cc(-c2ccnn2C)c2ccnc(-c3ccn[nH]3)c2n1` (stereo unspecified) + Cc1[nH]c2ccc(F)cc2c1-c1nc2c3cccnc3c3ncccc3c2[nH]1, which viability, T/C is on record?
A: The viability, T/C was 28.2%.

Q: Which viability, T/C does the source give for `CC1COCCN1c1cc(C2(S(C)(=N)=O)CC2)nc(-c2ccnc3[nH]ccc23)n1` (stereo unspecified) + Cc1[nH]c2ccc(F)cc2c1-c1nc2c3cccnc3c3ncccc3c2[nH]1 here?
A: The viability, T/C was 45.7%.
